Experimental findings from PubChem BioAssay (NCI) are described below.

Among the test systems are A549 NSCLC; HCT-116 colon; HT29 colon; IGROV1 ovarian; LOX IMVI melanoma; NCI-H226 lung; OVCAR-5 ovarian; SF-268 CNS; SK-OV-3 ovarian; SN12C renal.
Common to all, as to experiment: growth of human tumour cells (NCI), 48 h

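48-hour exposure; five concentrations; linearly interpolated endpoints. Here, GI50 denotes the concentration required for 50% inhibition of growth. TGI: concentration producing complete growth inhibition.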

With `CCCCCCCCCCCCCCCCC(=O)O.CCCCCCCCCCCCCCCCCC(=O)O.CCCCCCCCCCCCCCCCCC(=O)O.CCCCCCCCCCCCCCCCCC(=O)O.CCCCCCCCCCCCCCCCCC(=O)O.CO[CH-]OC12COC1CC(O)C1(C)C(O)C(OC(C)O)C3=C(C)C(OC(=O)C(O)C([NH-])c4ccccc4)CC(O)(C(OC(=O)c4ccccc4)C21)C3(C)C.[Cu+].[Zn].[Zn].[Zn].[Zn].[Zn]` (stereo not drawn), the GI50 with A549 NSCLC was 0.00818 µM; in the test on HCT-116 colon it was 0.00309 µM; with HT29 colon, under 0.0025 µM; in the test with IGROV1 ovarian it was 0.00711 µM; in the test with LOX IMVI melanoma, 0.00381 µM; in the test with NCI-H226 lung it was 0.277 µM. For the same compound, the results for the GI50 in the test with OVCAR-5 ovarian, in the test with SK-OV-3 ovarian and in the test with SN12C renal were 0.0113 µM, 0.0203 µM and 0.0116 µM, respectively. Besides, the TGI in the test on A549 NSCLC was over 22.3 µM; with HCT-116 colon, over 25 µM; with HT29 colon, over 25 µM; in the test on IGROV1 ovarian it was 4.39 µM; with LOX IMVI melanoma, 7.05 µM; with NCI-H226 lung, 8.05 µM. In addition, the TGI in the test with OVCAR-5 ovarian is 4.22 µM; in the test on SF-268 CNS, 6.25 µM; in the test on SK-OV-3 ovarian it was 5.3 µM; in the test on SN12C renal, over 25 µM.

For `COc1cc(C(=O)Nc2cc(OC)c3ccn(C)c3c2)cc2c1C[C@]1(C)CC[C@@H](O)C(C)(C)[C@H]1O2`, the TGI in the test with A549 NSCLC was 33.7 µM; in the test with HCT-116 colon, 17 µM; in the test with HT29 colon it was 13.8 µM; in the test on IGROV1 ovarian, over 100 µM; in the test on LOX IMVI melanoma it was 10.1 µM; in the test on NCI-H226 lung it was over 100 µM. Moreover, the TGI with OVCAR-5 ovarian is over 100 µM; in the test on SF-268 CNS, over 100 µM; in the test with SK-OV-3 ovarian, 5.11 µM; in the test with SN12C renal it was over 100 µM. Besides, the GI50 in the test with HCT-116 colon is 0.733 µM; with HT29 colon, 1.68 µM; in the test with IGROV1 ovarian, 1.7 µM; with LOX IMVI melanoma it was 1.01 µM; in the test with NCI-H226 lung it was 7.69 µM; with OVCAR-5 ovarian, 4.14 µM. The GI50 is 1.99 µM with SF-268 CNS, 0.58 µM in the test on SK-OV-3 ovarian and 3.93 µM in the test on SN12C renal.

Turning to `Cc1ccccc1-n1c2nc(=O)n(C)c(=O)c-2nc2ccccc21`, the TGI in the test on A549 NSCLC came out at 35.4 µM; in the test with HCT-116 colon, 28.3 µM; in the test on HT29 colon it was 14.3 µM; in the test on IGROV1 ovarian it was 37.9 µM; with LOX IMVI melanoma, 39.7 µM; in the test with NCI-H226 lung, 45 µM. In addition, the TGI is 34.9 µM in the test with OVCAR-5 ovarian, 32.1 µM in the test with SF-268 CNS, over 100 µM in the test on SK-OV-3 ovarian and 26.6 µM in the test on SN12C renal.

`COc1cc(-c2c(C#N)c(N)nc(N3CCOCC3)c2C#N)cc(OC)c1OC`: the GI50 was over 100 µM in the test with A549 NSCLC; 86.5 µM in the test on HCT-116 colon; over 100 µM in the test on HT29 colon; 92.1 µM in the test on IGROV1 ovarian; 79.7 µM in the test with LOX IMVI melanoma; over 100 µM with NCI-H226 lung. Besides, the GI50 in the test on OVCAR-5 ovarian was 27.2 µM; in the test on SF-268 CNS, over 100 µM; in the test with SK-OV-3 ovarian, 81.1 µM; with SN12C renal, over 100 µM. Also, the TGI in the test on A549 NSCLC, in the test on HCT-116 colon, in the test on HT29 colon, in the test with IGROV1 ovarian, in the test on LOX IMVI melanoma and in the test on NCI-H226 lung was over 100 µM in each case. Also, the TGI with OVCAR-5 ovarian, in the test with SF-268 CNS, in the test with SK-OV-3 ovarian and with SN12C renal was over 100 µM in each case.

Regarding `Cc1ccc(NC(=O)/C(Cl)=C(/Cl)C(=O)O)cc1`, the TGI in the test with A549 NSCLC is over 100 µM; in the test on HCT-116 colon, 28.2 µM; in the test on HT29 colon, 35 µM; with IGROV1 ovarian, 61.1 µM; with LOX IMVI melanoma, 30.9 µM; with NCI-H226 lung, over 100 µM. Also, the TGI with OVCAR-5 ovarian came to 37.6 µM; in the test with SF-268 CNS it was 42 µM; in the test on SK-OV-3 ovarian, 35.8 µM; in the test on SN12C renal it was 32.5 µM.

As to `CN(C)c1ccc(/C=C/C2=[N+](C)c3ccccc3C2(C)C)cc1`, the GI50 in the test with A549 NSCLC is 2.64 µM; with HCT-116 colon, 0.44 µM; in the test with HT29 colon, 0.293 µM; in the test on IGROV1 ovarian, 2.19 µM; in the test on LOX IMVI melanoma it was 0.339 µM; in the test with NCI-H226 lung, 1.57 µM. For the same compound, the GI50 in the test with OVCAR-5 ovarian was 2.22 µM; in the test with SF-268 CNS, 0.5 µM; in the test on SK-OV-3 ovarian, 0.729 µM; with SN12C renal it was 0.354 µM. The TGI with A549 NSCLC was 14.9 µM; in the test with HCT-116 colon, 20.3 µM; with HT29 colon, 2.53 µM; in the test on IGROV1 ovarian, over 100 µM; in the test with LOX IMVI melanoma, 10.6 µM; with NCI-H226 lung, 26.1 µM. Further, the TGI with OVCAR-5 ovarian came out at 22.4 µM; with SF-268 CNS it was 18.3 µM; in the test with SK-OV-3 ovarian, 4.19 µM; in the test with SN12C renal, 13.4 µM.
